Results: patent US9314510B2, “Human laminin α2 chain LG3 domain and active peptides promoting cell adhesion, spreading, migration, and neurite outgrowth” (SNU R&DB Foundation, priority 2011, dated 2016)
Ends that are not written are not given here.

B1: rLG3: recombinant His6-tagged human laminin α2 chain LG3 domain, amino acids 2537 to 2745 (protein, listed as Homo sapiens)
chain: VELSPVPIDVGTEINLSFSTKNESGIILLGSGGTPAPPRRKRRQTGQAYYVILLNRGRLEVHLSTGARTMRKIVIRPEPNLFHDGREHSVHVERTRGIFTVQVDENRRYMQNLTVEQPIEVKKLFVGGAPPEFQPSPLRNIPPFEGCIWNLVINSVPMDFARPVSFKNADIGRCAHQKLREDEDGAAPAEIVIQPEPVPTPAFPTPTPV
modifications: His6 tag

What was measured:
Schwann cells = assay: Schwann cell adhesion on coated plates; format: cell-based, human; settings: plates coated with 62.5 μg/mL peptide, 1 h, serum-free
[1] = test system: normal human dermal fibroblasts (NHDF); assay: Cell adhesion to Ln2-LG3-P2-coated plates, NHDF; format: cell-based; settings: NHDF at passage 4, 62.5 μg/mL, 1 h
Description: Normal human dermal fibroblasts (NHDF) isolated from hypodermal tissue of normal human skin were cultured in DMEM containing antibiotics and 10% FBS. Cells at passage 4 were used for the following experiments.

PC12 cells [2] = assay: Inhibition of cell spreading on rLG3 by peptide pretreatment; format: cell-based, rat; settings: PC12 cells pretreated with 500 μg/mL peptide, rLG3 25 μg/mL, 3 h
Description: PC12 cells were pretreated with 500 μg/mL of Ln2-LG3-P1, Ln2-LG3-P2, Ln2-LG3-P3, Ln2-LG3-P4, Ln2-LG3-P5 and SP (scramble peptide) (SEQ ID NO:20) for 10 min at room temperature and then cultured on plates coated with rLG3 (25 μg/mL) in serum-free medium. To observe cell adhesion, PC12 cells were incubated on the coated plates for 1 h and to observe cell spreading, PC12 cells were incubated on the coated plates for 3 h. To observe cell migration, cells were seed into the upper chamber of transwell filters coated with rLG3 (25 μg/mL) and cultured for 24 h. Cell migration was quantified by counting the number of cells that had migrated through the filter.

[3] = test system: normal human oral keratinocytes (NHOK); assay: Cell adhesion to Ln2-LG3-P2-coated plates, NHOK; format: cell-based; settings: NHOK at passage 2, 62.5 μg/mL, 1 h
Description: Normal human oral keratinocytes (NHOK) isolated from epidermal tissue of human gingiva were cultured in KGM (by Clonetics, San Diego, Calif.). Cells at passage 2 were used for the following experiments.

CV-1 cells = assay: Cell adhesion to Ln2-LG3-P2-coated plates, CV-1; format: cell-based, African green monkey; settings: 62.5 μg/mL, 1 h
Text: The normal African green monkey kidney fibroblast cell line CV-1 was purchased from the American Type Culture Collection (Manassas, Va.) and cultured in DMEM containing 10% FBS.

PC12 cells [4] = assay: Inhibition of cell adhesion to laminin by rLG3 / rLG3-M1 pretreatment; format: cell-based, rat; settings: laminin 5 μg/mL
Description: In addition, PC12 cells were pretreated with rLG3 (250 or 500 μg/mL) or vehicle (phosphate buffer, pH 3.0) for 30 min and then seeded on plates coated with laminin (5 μg/mL) for 30 min in serum-free medium and cell adhesion was observed.

Row | Molecule | Schwann cell adhesion (Schwann cells) | cell adhesion activity [1] | inhibition of cell spreading to rLG3 protein (PC12 cells [2]) | cell adhesion activity [3] | cell adhesion activity (CV-1 cells) | inhibition of cell adhesion to laminin (PC12 cells [4]; PC12 cells pretreated with 250 μg/mL for 30 min) | inhibition of cell adhesion to laminin (PC12 cells [4]; PC12 cells pretreated with 500 μg/mL for 30 min)
1 | RNIPPFEGCIWN (RNIPPFEGCIWN-NH2; listed as Homo sapiens) [Ln2-LG3-P2, 12-mer peptide, position 2675 to 2686 in human laminin α2 chain] | strong effect | strong cell adhesion activity | inhibited cell spreading and migration | strong cell adhesion activity | strong cell adhesion activity | – | –
2 | B1 | – | – | – | – | – | 23% | 48%
